Like-named read-outs stand apart in the source and are kept apart here.
Key:
[1] = system: L. braziliensis promastigotes; assay: Leishmanicidal activity on promastigotes, resazurin; assay type: cell-based, Leishmania braziliensis; settings: for IC50: 48 h, read-out: IC50 ± SD Promastigotes L. braziliensis; for SI NCTC/ L. braziliensis: ratio IC50 mammalian cell / IC50 parasite (promastigotes)
Source text: (§1) We initially selected compounds previously reported to have anti-T. cruzi activity from our chemical library to evaluate their leishmanicidal activity. […]. To evaluate their activity in Leishmania spp., we performed a phenotypic screening using the promastigote form of L. infantum (MHOM/FR/91/LEM-2259) and L. braziliensis ([…]) (Table 1A for the thiazolidenehydrazine derivate and Table 1B for the arylideneketones family).
(§2) A culture of L. braziliensis (MHOM/BR/75/M2904) and L. infantum (MHOM/FR/91/LEM2259V) was obtained from the Facultad de Farmacia (Universidad Complutense, Madrid, Spain). The maintenance of the strains, the form of cultivation and the isolation of the shape of the promastigote were performed following the procedures described by Roldos et al.. The promastigotes were grown at 22 °C in Schneider’s Drosophila medium supplemented with 20% FBS. The assay was performed using a modification of a previous method. Promastigotes (2 × 10^6 parasites/well) were cultivated in 96-well plastic plates. Compounds were dissolved in dimethylsulfoxide (DMSO). Different dilutions of the compounds with a final volume up to 200 µL were added. After 48 h at 26 °C, 20 µL of a 2 mM resazurin solution were added, and the oxidation-reduction was quantified at 570 and 600 nm. The solution of resazurin was prepared at 2.5 mM in phosphate buffered solution (PBS), pH 7.4, and filtered through 0.22-µm membranes prior to use. All tests were carried out in triplicate. Resazurin sodium salt was obtained from Sigma-Aldrich (St. Louis, MO, USA) and stored at 4 °C protected from light. The efficacy of each compound was estimated by calculating the IC50 values. Each antiproliferative experiment was done in duplicate, and each concentration was tested in triplicate.

[2] = system: L. infantum promastigotes; assay: as above; assay type: cell-based, Leishmania infantum; settings: for IC50: 48 h, read-out: IC50 ± SD Promastigotes L. infantum; for SI NCTC/ L. infantum: ratio IC50 mammalian cell / IC50 parasite (promastigotes)
Source text: as §1, §2

[3] = system: J774.1 murine macrophages; assay: Nonspecific cytotoxicity on macrophages, MTT; assay type: cell-based; settings: J774.1, 48 h, read-out: IC50 ± SD Murine Macrophages
Experimental: (§3) To establish the selectivity of the compounds against the parasites, nonspecific cytotoxicity against mammalian cells, using J774.1 murine macrophages and fibroblast NCTC929, was studied for the most relevant derivatives. The selectivity indexes were calculated as the ratio between cytotoxicity for mammalian cells and the anti-parasitic activity (Table 2).
J774.1 murine macrophage cells (ATCC, USA) were grown in DMEM culture milieu containing 4 mM L-glutamine and supplemented with 10% FCS. The cells were seeded in a 96-well plate (5.00 × 10^4 cells in 200 µL culture medium) and incubated at 37 °C in a 5% CO2 atmosphere for 48 h, to allow cell adhesion prior to drug testing. Afterwards, cells were exposed for 48 h to the compounds (25–400 μM) or the vehicle for control (0.4% DMSO), and additional controls (cells in medium) were used in each test. Cell viability was then assessed by measuring the mitochondria-dependent reduction of MTT (3-(4,5-dimethylthiazol-2-yl)-2,5-diphenyltetrazolium bromide) to formazan. For this purpose, MTT in sterile PBS (0.2% glucose), pH 7.4, was added to the macrophages to achieve a final concentration of 0.1 mg/mL, and the cells were incubated at 37 °C for 3 h. After removing the medium, formazan crystals were dissolved in 180 μL of DMSO and 20 μL of MTT buffer (0.1 M glycine, 0.1 M NaCl, 0.5 mM EDTA, pH 10.5), and the absorbance at 560 nm was measured. The IC50 was defined as the drug concentration at which 50% of the cells were viable, relative to the control (no drug added), and was determined by analysis using OriginLab8.5® sigmoidal regression (% of viable cells vs. the logarithm of the compound concentration). Tests were performed in triplicate.

[4] = system: T. cruzi epimastigotes, Tulahuen 2 strain (genotype TcVI); assay: In vitro anti-T. cruzi activity, growth inhibition of epimastigotes; assay type: cell-based, Trypanosoma cruzi; settings: for IC50: Trypanosoma cruzi, TULAHUEN; for SI J774.1/ T. cruzi: ratio IC50 mammalian cell / IC50 parasite (epimastigotes); for Trypanocidal activity on T. cruzi in words: molecular stripping, epimastigotes
Experimental: For the in vitro anti-T. cruzi activity, we used epimastigotes of the Tulahuen 2 strain (genotype TcVI) grown in an axenic milieu (BHI-Tryptose). Cells from a 5–7-day-old culture were inoculated in fresh culture milieu to give an initial concentration of 1.00 × 10^6 cells/mL. The absorbance at 600 nm of the cells in culture was measured every day. At Day 5, the milieu was inoculated with different quantities of the compounds from a stock solution in DMSO (DMSO concentration in the culture milieu never exceeded 0.4%). The control was made in the presence of 0.4% DMSO and in the absence of compounds. Each concentration of compound was evaluated in duplicate. At Day 5, the absorbance of the culture was measured and related to the control. […] Each antiproliferative experiment was done in duplicate, and each concentration was tested in triplicate.

zebrafish embryos = assay: Zebrafish embryo toxicity test (LD50); settings: for LD50 without chorion: dechorionated zebrafish embryos, 72 h incubation; for LD50 with chorion: zebrafish embryos with chorion
Experimental: […] Only embryos that were clearly undamaged after 60 min of observation were kept and subsequently used. Dechorionated embryos were further manipulated using flame-rounded tip glass Pasteur pipettes. […] In all cases, the embryos were incubated in system water with 1% DMSO (negative control) and the compound at different doses between 8 and 96 hpf. The treatment solution was changed daily. […] At selected time points, namely 24, 48, 72 and 96 hpf, embryotoxicity (= mortality) and morphological characteristics of the embryos were evaluated using a Nikon SMZ800 stereomicroscope. The embryos were evaluated for the presence and morphological development (as appropriate) of somites, tail detachment, eyes, heart beat and blood circulation. All individuals were evaluated at all time points.

NCTC929 fibroblasts = assay: Nonspecific cytotoxicity on fibroblasts, resazurin; assay type: cell-based; settings: NCTC-929, 24 h; read-out: IC50 ± SD Fibroblast NCTC929
Experimental: as §3
NCTC-Clone 929 were grown in minimal essential medium (Sigma) supplemented with 10% heat-inactivated FBS, penicillin G (100 U/mL) and streptomycin (100 µg/mL). Cell cultures were maintained at 37 °C in a humidified 5% CO2 atmosphere. The procedure for cell viability measurement was evaluated with resazurin by a colorimetric method. The cells were plated in 96 microtiter plates at 3.00 × 10^4 cells/well in 100 µL growth medium. The cells were grown overnight at 37 °C, 5% CO2. Thereafter, the medium was removed, and the compounds were added to 200 µL of medium for 24 h. After incubation, 20 µL of a 2 mM resazurin solution were added to each well. The plates were incubated for 3 h to allow optimal oxidation-reduction. The reduction of resazurin was determined by dual wavelength absorbance measurement at 490 and 595 nm. The background was subtracted. Each concentration was assayed three times. Medium and drug controls were used in each test as blanks.

[5] = Tulahuen 2 strain, read-out: IC50 ± SD Epimastigotes T. cruzi
[6] = Figure 4, molecular stripping of HIT1, read-out: Effect of structural change on trypanocidal activity (emoticon code)

Compound	IC50 [1]	SI NCTC/ L. braziliensis [1]	IC50 [2]	SI NCTC/ L. infantum [2]	IC50 [3]	IC50 [4, 5]	SI J774.1/ T. cruzi [4]	IC50 ([3]; Mus musculus)	LD50 without chorion (zebrafish embryos)	LD50 with chorion (zebrafish embryos)	IC50 ([1]; Leishmania braziliensis)	IC50 ([2]; Leishmania infantum)	melting point	Trypanocidal activity on T. cruzi in words [4]	IC50 [4, 6]	IC50 (NCTC929 fibroblasts)
Glucantime [reference compound]	18 ± 2 µM	1	26 ± 9 µM	0.5	15 ± 1 µM	–	–	–	–	–	–	–	–	–	–	–
O=C(Cn1ccnc1[N+](=O)[O-])NCc1ccccc1 [Benznidazole, reference compound]	–	–	–	–	–	7 ± 1 µM	57	400 ± 4 µM	> 1000 µM	> 1000 µM	–	–	–	–	–	–
Clc1ccc(-c2csc(N/N=C/C=C/c3ccco3)n2)cc1 [GAT2212B]	–	–	–	–	–	1.2 ± 0.3 µM	–	–	–	–	> 25 µM	25 µM	212 °C (dec.)	–	–	–
C=CCn1c(C(=O)CNN2CCN(CC=Cc3ccccc3)CC2)cs/c1=N/N=C\C=C\c1ccco1 [GAT0613, 1-((Z)-3-allyl-2-((E)-((E)-3-(furan-2-yl)allylidene)hydrazono)-2,3-dihydrothiazol-4-yl)-2-((4-cinnamylpiperazin-1-yl)amino)ethanone]	–	–	–	–	–	11 ± 4 µM	–	–	–	–	25 µM	> 25 µM	150 to 153 °C	the activity was lost	–	–
C(=C\c1ccco1)/C=N/N1CCN(Cc2ccccc2)CC1 [GAT1912, (E)-4-benzyl-N-((E)-3-(furan-2-yl)allylidene)piperazin-1-amine]	–	–	–	–	–	> 25 µM	–	–	–	–	> 100 µM	> 100 µM	145 to 147 °C	–	> 25 µM	–
CCCCCCCCCCCCCCCCOP(=O)([O-])OCC[N+](C)(C)C [Miltefosine, reference compound]	–	–	–	56	–	8 ± 1 µM	6	50 ± 7 µM	–	–	0.9 ± 0.2 µM	0.9 ± 0.2 µM	–	–	–	–
C(=Cc1ccccc1)CN1CCN(/N=C/C=C/c2ccco2)CC1 [GAT0913b, (E)-4-cinnamyl-N-((E)-3-(furan-2-yl)allylidene)piperazin-1-amine]	–	9	–	8	–	> 25 µM	1	25 ± 3 µM	–	–	18 ± 5 µM	21 ± 2 µM	–	the activity was lost	> 25 µM	160 ± 7 µM
CC(=O)N1CCN(c2ccc(OCC3COC(Cn4ccnc4)(c4ccc(Cl)cc4Cl)O3)cc2)CC1 (centres unmarked) [Ketoconazole, reference compound]	–	–	–	–	–	–	–	–	12 ± 3 µM	> 25 µM	–	–	–	–	–	–
Cc1ccc(/C=C/C=C/C(/C=C/C=C/c2ccc(C)o2)=NN2CCN(CC=Cc3ccccc3)CC2)o1 [GAT1113, N-((1E,3E,6E,8E)-1,9-bis(5-methylfuran-2-yl)nona-1,3,6,8-tetraen-5-ylidene)-4-cinnamylpiperazin-1-amine]	–	10	–	12	–	1.6 ± 0.3 µM	28	45 ± 5 µM	–	–	16 ± 4 µM	14 ± 2 µM	148 to 150 °C	–	< 5 µM	165 ± 5 µM
C=CCn1c(-c2ccc(Cl)cc2)cs\c1=N/N=C/C=C/c1ccc(C)o1 [GAT0113A]	–	32	–	40	–	3 ± 0.5 µM	22	66 ± 7 µM	–	–	10 ± 1 µM	8 ± 2 µM	220 °C (dec.)	equipotent to the parent compound	–	319 ± 16 µM
C=CCn1c(-c2ccc(Cl)cc2)cs\c1=N/N=C/C(C)=C/c1ccco1 [GAT0513]	–	44	–	25	–	0.09 ± 0.02 µM	611	55 ± 5 µM	–	–	33 ± 11 µM	58 ± 12 µM	228 °C (dec.)	active against T. cruzi	–	1440 ± 30 µM
C=CCn1c(C(=O)CN2CCN(CC=Cc3ccccc3)CC2)cs/c1=N/N=C\C=C\c1ccco1 [GATk6, 1-((Z)-3-allyl-2-((E)-((E)-3-(furan-2-yl)allylidene)hydrazono)-2,3-dihydrothiazol-4-yl)-2-(4-cinnamylpiperazin-1-yl)ethanone]	–	–	–	–	–	1.2 ± 0.3 µM	–	–	–	–	> 25 µM	> 25 µM	140 to 142 °C	–	< 5 µM	–

Source: publication PMC6154605, “Multi-Anti-Parasitic Activity of Arylidene Ketones and Thiazolidene Hydrazines against Trypanosoma cruzi and Leishmania spp” (Molecules : A Journal of Synthetic Chemistry and Natural …, 2017)
